Results as given in US8367361B2, “Methods using O6-alkylguanine-DNA alkytransferase” (Ecole Polytechnique Federale de Lausanne, priority 2001, dated 2013).

Assays:
[1] = target: T1, endogenous hAGT in human cells (HEK 293) (Homo sapiens, UniProt P16455); assay: Fluorescence labelling of endogenous hAGT in HEK 293 cells, confocal microscopy; format: cell-based; conditions: HEK 293 cells preincubated overnight with 1 μM O6-benzylguanine before BG-AcFc
T1 construct: endogenous hAGT in human cells (HEK 293); endogenous in cells; host or cells: HEK 293
T1 sequence (P16455 1-207): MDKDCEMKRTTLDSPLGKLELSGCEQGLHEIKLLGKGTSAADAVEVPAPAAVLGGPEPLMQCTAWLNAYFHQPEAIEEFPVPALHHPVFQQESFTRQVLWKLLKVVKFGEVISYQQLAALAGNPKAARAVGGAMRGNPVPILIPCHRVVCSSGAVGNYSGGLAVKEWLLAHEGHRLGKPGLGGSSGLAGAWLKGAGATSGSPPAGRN
From the text: (C) is an overlay of the images obtained from fluorescence and light microscopy.
Images were then taken with a confocal fluorescence microscope (Ext. 492 nm; Em. 510 nm). […] This should inactivate the endogenous hAGT and therefore prevent the accumulation of the fluorescence in the nucleus. […] The substrate's emission wavelength is 519 nm (excitation at 237, 323 and 490 nm respectively).

[2] = target: T2, hAGT (Homo sapiens, UniProt P16455); conditions: cited from earlier work
T2 sequence (P16455 1-207): T1 sequence (P16455 1-207)

Structure (SMILES): Nc1nc(OCc2ccccc2)c2nc[nH]c2n1 [O^6-benzylguanine]
- accumulation of BG-AcFc fluorescence in the nucleus after preincubation [1]: no accumulation of fluorescence in the nucleus was observed
- second order rate constant of reaction with hAGT [2]: approximately 10^3 sec^−1 M^−1
